Consider two molecules from ChEMBL document CHEMBL5120799, “A Nrf-2 Stimulatory Hydroxylated Cannabidiol Derivative from Hemp (Cannabis sativa)” (J Nat Prod, 2022).

For assay [1], the target named is T1, Nuclear factor erythroid 2-related factor 2 (Homo sapiens) (UniProt Q16236).
T1 sequence (whole entry): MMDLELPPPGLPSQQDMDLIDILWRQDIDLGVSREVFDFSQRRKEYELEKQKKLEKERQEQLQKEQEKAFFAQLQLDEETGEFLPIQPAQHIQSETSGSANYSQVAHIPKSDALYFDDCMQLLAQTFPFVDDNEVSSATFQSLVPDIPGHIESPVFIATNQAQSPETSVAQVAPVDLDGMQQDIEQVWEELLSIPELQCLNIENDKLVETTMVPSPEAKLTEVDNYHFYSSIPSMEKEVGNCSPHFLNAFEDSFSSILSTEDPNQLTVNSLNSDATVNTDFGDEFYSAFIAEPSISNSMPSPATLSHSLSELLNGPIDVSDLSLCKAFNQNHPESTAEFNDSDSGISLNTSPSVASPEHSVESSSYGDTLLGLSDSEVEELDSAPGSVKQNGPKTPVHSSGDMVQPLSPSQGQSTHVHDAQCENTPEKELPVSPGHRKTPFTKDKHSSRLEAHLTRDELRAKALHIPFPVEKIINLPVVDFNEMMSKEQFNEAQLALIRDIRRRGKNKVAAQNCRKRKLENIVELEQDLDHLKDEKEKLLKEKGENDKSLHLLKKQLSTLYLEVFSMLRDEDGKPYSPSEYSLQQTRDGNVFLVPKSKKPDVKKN
Description: Activation of Nrf2 transcriptional activity in human HaCaT-ARE-Luc cells at 1 to 25 uM incubated for 6 hrs by luciferase activity assay. It counts as cell-based. As to conditions: filed as activator, dose 1-25 µM.

Assay [2] deals with T1, Nuclear factor erythroid 2-related factor 2 (Homo sapiens). Description: Activation of Nrf2 transcriptional activity in human HaCaT-ARE-Luc cells at 1 uM incubated for 6 hrs by luciferase activity assay relative to control. It counts as cell-based.
The target is the same in assay [3]. Description: Activation of Nrf2 transcriptional activity in human HaCaT-ARE-Luc cells at 10 uM incubated for 6 hrs by luciferase activity assay relative to control. It counts as cell-based. As to conditions: filed as activator.
Assay [4] shares this target. Description: Activation of Nrf2 transcriptional activity in human HaCaT-ARE-Luc cells at 25 uM incubated for 6 hrs by luciferase activity assay relative to control. It counts as cell-based. Particulars: filed as activator.
For assay [5], the system named is HaCaT. Description: Inhibition of TBHP-induced ROS production in human HaCaT cells assessed as reduction on intracellular ROS level at 1 to 25 uM pretreated for 30 mins followed by TBHP stimulation and measured after 3 hrs by DCFH2-DA staining analysis. Particulars: dose 1-25 µM, time 3.5 hrs, DDE = dose-dependent effect. Type of assay: functional, cell-based.
In assay [6] the test system is HaCaT. Description: Inhibition of TBHP-induced ROS production in human HaCaT cells assessed as reduction on intracellular ROS level at 25 uM pretreated for 30 mins followed by TBHP stimulation and measured after 3 hrs by DCFH2-DA staining analysis. Type of assay: functional, cell-based. As to conditions: time 3.5 hrs.

The structures appear in SMILES notation. Activity calls are given as the source filed them. The calls are words filed in the database; no cut-off is given here.

With `C=C(C)[C@@H]1CCC(C)=C[C@H]1c1c(O)cc(CCCCC)cc1O`, the outcome in assay [1] was Active.

For `C=C1CC[C@@H](C(=C)C)[C@H](c2c(O)cc(CCCCC)cc2O)[C@H]1O`, the results for the Activity in assay [2], in assay [3] and in assay [4] were 20%, 144% and 202%, respectively. Moreover, in the assay on HaCaT [5], the inhibition entry was “Dde”. Further, the inhibition entry in the assay on HaCaT [6] was “Active”.
